Measurements published in US20070249519A1, “METHODS FOR THE UPREGULATION OF GLUT4 VIA MODULATION OF PPAR DELTA IN ADIPOSE TISSUE AND FOR THE TREATMENT OF DISEASE” (KALYPSYS, INC., priority 2006, published 2007).

What was measured:
[1] = molecular target: T1, PPAR delta (Homo sapiens, UniProt Q03181); conditions: GAL4 chimera, CV-1 cells, luciferase; cited from earlier work
T1 construct: expressed in transfected cells; host or cells: CV-1 cells
T1 sequence (Q03181 211-439 limits assumed): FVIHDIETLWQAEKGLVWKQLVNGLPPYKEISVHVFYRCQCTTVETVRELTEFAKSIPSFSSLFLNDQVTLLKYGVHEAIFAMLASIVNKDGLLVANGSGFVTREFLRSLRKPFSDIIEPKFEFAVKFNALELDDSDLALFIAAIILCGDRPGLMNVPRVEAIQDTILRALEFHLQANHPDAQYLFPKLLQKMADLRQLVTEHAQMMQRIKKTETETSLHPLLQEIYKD

[2] = molecular target: T2, PPAR gamma (Homo sapiens, UniProt P37231); conditions: GAL4 chimera, CV-1 cells, luciferase; cited from earlier work
T2 construct: expressed in transfected cells; host or cells: CV-1 cells
T2 sequence (P37231 238-503 limits assumed): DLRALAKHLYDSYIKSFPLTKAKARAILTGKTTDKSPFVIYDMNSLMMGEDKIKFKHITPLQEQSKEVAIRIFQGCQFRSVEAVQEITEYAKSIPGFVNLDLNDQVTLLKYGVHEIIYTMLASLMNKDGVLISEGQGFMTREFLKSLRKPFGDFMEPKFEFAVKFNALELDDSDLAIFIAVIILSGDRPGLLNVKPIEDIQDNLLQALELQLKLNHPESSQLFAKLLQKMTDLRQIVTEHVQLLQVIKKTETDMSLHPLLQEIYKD

[3] = molecular target: T3, PPAR alpha (Homo sapiens, UniProt Q07869); conditions: GAL4 chimera, CV-1 cells, luciferase; cited from earlier work
T3 construct: expressed in transfected cells; host or cells: CV-1 cells
T3 sequence (Q07869 239-466 limits assumed): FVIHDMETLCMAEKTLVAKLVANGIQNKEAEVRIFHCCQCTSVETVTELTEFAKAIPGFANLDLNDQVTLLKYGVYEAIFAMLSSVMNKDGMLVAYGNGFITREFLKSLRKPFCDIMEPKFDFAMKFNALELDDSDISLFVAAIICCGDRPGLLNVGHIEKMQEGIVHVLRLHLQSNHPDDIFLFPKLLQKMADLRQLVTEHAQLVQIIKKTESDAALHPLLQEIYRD

[4] = Glucose tolerance testing (GTT), DIO model in mice; format: in vivo, C57B1/6j mice
Description: (§1) Metabolic syndrome in humans is characterized by abdominal obesity, high triglycerides, impaired fasting glucose and hyperinsulinemia. In the DIO model, mice are fed high fat diet (HFD, Research diet D12492, Research Diet, N.J.) diet (58% lard) for the entire period of the study. Compared to normal chow (NC, Harlan-Tekland #8604, WI) fed animals the HF fed mice develop several features of metabolic syndrome such as hypertriglyceridemia, hyperinsulinemia and mild hyperglycemia, as early as two weeks, on this diet. […] Additionally, GLUT4 expression is down regulated in HF-fed C57B1/6j mice after 4 weeks. This model was used to evaluate the pharmacological effects of a Compound 1 and Compound 2 in mitigating several features of HFD induced metabolic syndrome in rodents.
(§2) C57B1/6j mice (n=5-6 for each group) were fed ad libitum with either the HFD (58% fat) or NC (5%) diet for 4 weeks prior to start of experiments, and throughout the course of each experiment (Days −27 to Day 60). Starting on Day 1, mice were dosed BID with either 3 mg/kg Compound 1+vehicle, 9 mg/kg Compound 1+vehicle, 3 mg/kg Compound 2+vehicle, or vehicle alone, for the entire period of the study (day 0-60). Plasma Insulin, and glucose levels under fasting and postprandial (PP) conditions were measured using the Ultrasensitive Mouse Insulin ELISA kit (Mercodia) and glucometer (Accu-Check Compact, Roche) respectively. Appropriate dilutions were made in each case to ensure that the samples remained in the linear range of the standard curve. Animals were sacrificed and levels of Compound 1 and Compound 2 in adipose and muscle tissue were assayed using LC/Mass Spec. Tissues were collected at sacrifice at 3-4 hours post dosing with compound 1 or compound 2 in a fed state and GLUT4 mRNA expression was assessed using GLUT4 specific probes and branched DNA (bDNA) analyses (Epicenter Biotechnologies).

[5] = Insulin tolerance testing (ITT), DIO model in mice; format: in vivo, C57B1/6j mice; conditions: NC and HFD cohorts, 3 and 9 mg/kg
Description: as §1, with “This model was used to evaluate the pharmacological effects of a Compound 1 and Compound 2 in mitigating several features of HFD induced metabolic syndrome in rodents.” left out
(§3) C57B1/6j mice (n=5-6 for each group) were fed ad libitum with either the HFD (58% fat) or NC (5%) diet for 4 weeks prior to start of experiments, and throughout the course of each experiment (Days −27 to Day 60). […] Plasma Insulin, and glucose levels under fasting and postprandial (PP) conditions were measured using the Ultrasensitive Mouse Insulin ELISA kit (Mercodia) and glucometer (Accu-Check Compact, Roche) respectively. […] Tissues were collected at sacrifice at 3-4 hours post dosing with compound 1 or compound 2 in a fed state and GLUT4 mRNA expression was assessed using GLUT4 specific probes and branched DNA (bDNA) analyses (Epicenter Biotechnologies).

[6] = Compound level in adipose tissue by LC/Mass Spec, DIO model in mice; format: in vivo, C57B1/6j mice; conditions: 8 weeks of treatment, 3 or 9 mg/kg/d Compound 1 vs 3 mg/kg/day Compound 2
Experimental: as §2

[7] = test system: GLUT4 mRNA expression; assay: GLUT4 mRNA expression in adipose tissue, DIO model in mice; format: in vivo, C57B1/6j mice; conditions: 3 or 9 mg/kg
Description: as §1, with “This model was used to evaluate the pharmacological effects of a Compound 1 and Compound 2 in mitigating several features of HFD induced metabolic syndrome in rodents.” left out
as §3

[8] = test system: GLUT4 mRNA expression; assay: GLUT4 mRNA expression in muscle tissue, DIO model in mice; format: in vivo, C57B1/6j mice; conditions: 14 weeks of treatment, 3 or 9 mg/kg, NC or HFD, vs vehicle
Description: as §1, with “This model was used to evaluate the pharmacological effects of a Compound 1 and Compound 2 in mitigating several features of HFD induced metabolic syndrome in rodents.” left out
as §3

[9] = in vivo; cited from earlier work
[10] = test system: GLUT4; conditions: in vivo; cited from earlier work
[11] = test system: GLUT4 translocation; conditions: ZDF ob/ob and DIO C57BL/6 mice; cited from earlier work

| Compound | EC50 [1] [µM] | EC50 [2] [µM] | EC50 [3] [µM] | further results |
| --- | --- | --- | --- | --- |
| C[C@@H]1CN(c2ccc(OC(F)(F)F)cc2)C[C@H](C)N1S(=O)(=O)c1cccc2c1CC(C(=O)O)C2 (mixture of isomers) [Compound 1, 4-[cis-2,6-Dimethyl-4-(4-trifluoromethoxy-phenyl)-piperazine-1-sulfonyl]-indan-2-carboxylic acid] | < 5 | > 100 | > 100 | plasma glucose during GTT, effect by dose (FIG. 6) ([4]; HFD cohort, 3 and 9 mg/kg): an effect was seen at both doses; plasma glucose during GTT (FIGS. 5 and 6) ([4]; NC and HFD cohorts): increased glucose disposal; plasma insulin during GTT (FIGS. 7 and 8) ([4]; NC and HFD cohorts): decreased insulin levels; plasma glucose during ITT (FIGS. 9 and 10) [5]: attenuated plasma glucose output; uptake (concentration) in murine adipose tissue (FIG. 4) [6]: preferentially uptaken over Compound 2; GLUT4 mRNA expression in murine adipose tissue (FIG. 3) ([7]; 8 weeks of treatment, HFD cohort): upregulated; GLUT4 mRNA expression in murine adipose tissue (FIG. 2) ([7]; 14 days of treatment, HFD fed mice): normalized expression of GLUT-4; GLUT4 mRNA expression in murine muscle tissue (FIG. 1) [8]: no significant increase |
| C[C@@H]1CN(Cc2ccc(OC(F)(F)F)cc2)C[C@H](C)N1S(=O)(=O)c1cccc2c1CC(C(=O)O)C2 (mixture of isomers) [Compound 3, 4-[cis-2,6-Dimethyl-4-(4-trifluoromethoxy-benzyl)-piperazine-1-sulfonyl]-indan-2-carboxylic acid] | < 5 | 5 to 100 | 5 to 100 | – |
| C[C@@H]1CN(c2ccc(OC(F)(F)F)cc2)C[C@H](C)N1S(=O)(=O)c1cccc2c1C[C@@H](C(=O)O)C2 [Compound 1A, (S)-4-[cis-2,6-Dimethyl-4-(4-trifluoromethoxy-phenyl)-piperazine-1-sulfonyl]-indan-2-carboxylic acid] | < 5 | > 100 | > 100 | – |
| Cc1cc(SCc2sc(-c3ccc(C(F)(F)F)cc3)nc2C)ccc1OCC(=O)O [Compound 2, {2-Methyl-4-[4-methyl-2-(4-trifluoromethyl-phenyl)-thiazol-5-ylmethylsulfanyl]-phenoxy}-acetic acid] | – | – | – | tissue partitioning [9]: preferentially partitions into muscular tissue; expression of GLUT4 in rat skeletal muscle [10]: increased expression of GLUT4 |
| C[C@@H]1CN(Cc2ccc(OC(F)(F)F)cc2)C[C@H](C)N1S(=O)(=O)c1cccc2c1C[C@@H](C(=O)O)C2 [Compound 3A, (S)-4-[cis-2,6-Dimethyl-4-(4-trifluoromethoxy-benzyl)-piperazine-1-sulfonyl]-indan-2-carboxylic acid] | < 5 | 5 to 100 | > 100 | – |
| CC(=O)NCCOC(=O)[C@H](Oc1cccc(C(F)(F)F)c1)c1ccc(Cl)cc1 [MBX-102] | – | – | – | insulin sensitivity and GLUT4 translocation in adipose and muscular tissue [11]: enhanced insulin sensitivity and GLUT4 translocation |
